Test results from patent publication US20050158371A1, “Novel external agent” (Sumitomo Pharmaceuticals Co., Ltd., priority 2002, published 2005).

Experiment: Serum concentration of leflunomide after transdermal or oral administration to adjuvant arthritis rats, LC-MS/MS (Experimental Example 5B)
Assay type: in vivo
Settings: rat, leflunomide in serum, single oral administration 20 mg/kg
Method: The dosage form for external application of leflunomide as shown in Example was administered once to adjuvant arthritis rats prepared in the same manner as in Experimental Example 1B and the concentration of leflunomide in serum was measured using LC-MS/MS. In addition, the concentration in serum on simultaneous oral administration of leflunomide once (20 mg/kg) was measured and compared.

AUC(0-t) (read-out: AUC, area under the drug concentration-time curve [AUC(0−T)]): 600 ng·h/mL
Cmax (read-out: Cmax, maximum drug concentration): 502 ng/mL
Tmax (read-out: tmax, times to reach maximum drug concentration): 30 min
SMILES: Cc1oncc1C(=O)Nc1ccc(C(F)(F)F)cc1 [leflunomide, N-(4′-trifluoromethylphenyl)-5-methylisoxazole-4-carboxamide]
